Assay results taken from US11103504B2, “Combination of a DNA condensation-inducing compound and an Eis inhibitor for antibiotic treatment” (priority 2018, dated 2021).

Tests used:
M. smegmatis mc^2155 [1] = assay: DNA localization / DNA-condensation by fluorescence microscopy; type: cell-based, Mycobacterium smegmatis
M. tuberculosis mc^26030 [2] = assay: DNA-condensation incidence by fluorescence microscopy; type: cell-based, Mycobacterium tuberculosis; settings: for fraction of bacilli with condensed DNA: 20 times the MIC50, 1 hour, vs control, P<0.05, FIG. 2D; for induction of condensation of the DNA: summary statement
M. smegmatis mc^2 155 = assay: DNA volume quantification (deconvolved wide-field FM); type: cell-based, Mycobacterium smegmatis; settings: incubated with FA for 1 hour, FIG. 5B
Method: Z-stack Wide-field FM images of fixed M. smegmatis mc^2 155 stained for DNA and lipids were collected at 200 nm increments. Deconvolution and DNA volume quantification was subsequently performed using standard deconvolution parameters of Huygens Professional software (Scientific Volume Imaging, SVI, Hilversum, The Netherlands). Average volume was determined for 60 bacteria per condition per experiment and standard deviation was calculated with 2-tailed T-test.

M. smegmatis mc^2155 [3] = assay: Monitoring mycobacterial survival (OD600, CFU); type: cell-based, Mycobacterium smegmatis; settings: combination of fusidic acid and Eis inhibition
Method: M. smegmatis mc^2155 overnight cultures were treated with FA, EIS inhibitor 1a*, or a combination hereof. Cultures were treated with antibiotic for 1 hour before second antibiotic was administered. Before treatment, and after 2 hours and at day 1,2,3 and 6, the OD600 was determined with a spectrophotometer, and a sample of the culture was fixed, or plated in a dilution series on 7H10 plates in triplo. At day 2, the antibiotic treatment was repeated. At least 3 independent experiments were quantified per condition.
In all experiments, factor correction was applied to remove systematic differences between the different measuring sessions needed to obtain the results. In case of 2 experimental conditions, Student's t-test was applied. […] To further dissect these effects, a 1-way ANOVA per time point was performed.

M. smegmatis = assay: Live cell imaging with bacterial viability staining; type: cell-based, Mycobacterium smegmatis; settings: live-cell imaging started 5 minutes after FA addition
M. tuberculosis mc^26030 [4] = type: cell-based, Mycobacterium tuberculosis; settings: 1 hour after FA treatment vs untreated
[5] = system: M. smegmatis mc^23449 SMC triple deletion mutant; type: cell-based, Mycobacterium smegmatis; settings: FA 1 hour, FIGS. 6A-B
M. smegmatis mc^2155 [6] = assay: Transmission electron microscopy of ultrathin sections; type: cell-based, Mycobacterium smegmatis; settings: FA treated, early log phase

## CC(=O)O[C@H]1C[C@@]2(C)[C@@H](C[C@@H](O)[C@H]3[C@@]4(C)CC[C@@H](O)[C@@H](C)[C@@H]4CC[C@@]32C)/C1=C(\CCC=C(C)C)C(=O)O [fusidic acid]
M. smegmatis mc^2155 [1]; 2 days of incubation, first agent 1 hour before second
  DNA distribution after 2 days: still displayed condensed DNA
M. smegmatis mc^2155 [1]; after 1 hour of antibiotic stress, FIG. 2C
  bacteria that condensed their nucleoid: more than 80%
M. smegmatis mc^2155 [1]; early log phase, FIG. 2A
  bacteria that condensed their DNA into a single nucleoid after FA treatment: more than 90%
M. tuberculosis mc^26030 [2]
  incidence of DNA-condensation after wash-out (reversibility): increased until 6 hours after treatment, followed by a gradual reduction
  fraction of bacilli with condensed DNA: increased the percentage bacteria with condensed DNA significantly
  induction of condensation of the DNA: can induce condensation of the DNA
M. tuberculosis mc^26030 [2]; same experimental conditions as M. smegmatis, FIG. 2B
  DNA localization after FA treatment: condensed their DNA into a single nucleoid
M. smegmatis mc^2 155
  average 3D volume of the DNA clusters: 0.24 μm^3
M. smegmatis mc^2155 [3]
  potentiation of efficacy by the combination: 10 fold
M. smegmatis
  time until first bacteria converted from viable to inviable: 16 min
M. tuberculosis mc^26030 [4]
  percentage of nonviable bacteria with condensed DNA: did not differ
  percentage of viable bacteria with condensed DNA: increased significantly
[5]
  DNA condensation after FA treatment in SMC triple knock out: clearly visible
M. smegmatis mc^2155 [6]
  ultrastructural DNA localization (TEM): bundles of DNA were localized in a single compact nucleoid

## NNC(=O)c1ccncc1 [isoniazid]
M. tuberculosis mc^26030 [2]
  induction of condensation of the DNA: can induce condensation of the DNA

## CC(=O)NC[C@H]1CN(c2ccc(N3CCOCC3)c(F)c2)C(=O)O1 [linezolid]
M. tuberculosis mc^26030 [2]
  induction of condensation of the DNA: can induce condensation of the DNA

## CCn1cc(C(=O)O)c(=O)c2ccc(C)nc21 [nalidixic acid]
M. tuberculosis mc^26030 [2]
  fraction of bacilli with condensed DNA: increased the percentage bacteria with condensed DNA significantly
  induction of condensation of the DNA: can induce condensation of the DNA

## [H]/N=C(/N)N[C@H]1[C@H](O)[C@@H](O)[C@H](O[C@@H]2O[C@@H](C)[C@](O)(C=O)[C@H]2O[C@@H]2O[C@@H](CO)[C@H](O)[C@@H](O)[C@@H]2NC)[C@@H](N/C(N)=N\[H])[C@@H]1O [streptomycin]
M. tuberculosis mc^26030 [2]
  fraction of bacilli with condensed DNA: increased the percentage bacteria with condensed DNA significantly
  induction of condensation of the DNA: can induce condensation of the DNA
